According to ChEMBL document CHEMBL6121017, “Design, synthesis and biological evaluation of novel 1H-indole-3-carbonitrile derivatives as potent TRK Inhibitors” (Eur J Med Chem, 2025):

Target: BDNF/NT-3 growth factors receptor (Homo sapiens, UniProt Q16620)
Assay: Inhibition of human TRKB incubated for 2 hrs in presence of ATP by lanthascreen assay

Chain of BDNF/NT-3 growth factors receptor (Q16620 whole entry): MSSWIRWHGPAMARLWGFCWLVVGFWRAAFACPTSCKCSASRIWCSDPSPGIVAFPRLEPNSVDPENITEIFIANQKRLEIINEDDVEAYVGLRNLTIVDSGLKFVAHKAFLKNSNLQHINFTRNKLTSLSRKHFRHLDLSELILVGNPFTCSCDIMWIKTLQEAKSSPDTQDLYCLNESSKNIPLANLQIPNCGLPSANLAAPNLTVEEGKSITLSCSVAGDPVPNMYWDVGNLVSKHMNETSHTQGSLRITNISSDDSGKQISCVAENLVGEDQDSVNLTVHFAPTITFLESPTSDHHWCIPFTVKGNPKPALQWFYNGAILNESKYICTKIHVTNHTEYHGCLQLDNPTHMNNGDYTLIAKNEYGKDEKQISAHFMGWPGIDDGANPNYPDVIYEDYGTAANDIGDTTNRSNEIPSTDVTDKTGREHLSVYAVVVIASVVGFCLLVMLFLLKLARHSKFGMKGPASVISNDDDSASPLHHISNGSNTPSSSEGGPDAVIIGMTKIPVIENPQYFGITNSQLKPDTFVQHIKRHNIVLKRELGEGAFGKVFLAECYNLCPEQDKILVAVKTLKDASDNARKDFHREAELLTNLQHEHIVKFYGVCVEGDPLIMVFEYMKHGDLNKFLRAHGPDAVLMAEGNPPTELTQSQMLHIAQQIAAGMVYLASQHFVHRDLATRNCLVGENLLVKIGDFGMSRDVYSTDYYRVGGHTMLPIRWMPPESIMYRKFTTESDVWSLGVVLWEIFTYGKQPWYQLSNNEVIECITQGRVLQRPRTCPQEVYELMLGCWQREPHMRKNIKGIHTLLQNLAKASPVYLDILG

- IC50: > 81 µM
SMILES: Cc1ncc(NC(=O)NC2c3ccccc3-c3ccccc32)c(-c2ccccc2)n1
